Test results published in patent US11628198B2, “Methods for prevention and treatment of acute renal injury” (Cornell University, priority 2008, dated 2023).

Experiments:
Format in all cases: in vivo, rat
[1] = system: CIN in glycerol-induced rhabdomyolysis animal model; assay: CIN in glycerol-induced rhabdomyolysis model, Experiment 3
Description: SD rats with body weight of 300-400 grams were dehydrated for 24 h followed by i.m. injection with 25% glycerol solution (v/v) at the dose of 10 ml/kg. Twenty-four hours (24 h) later, the rats were grouped and subjected to contrast induced nephropathy study protocol. Eighteen SD rats with body weight of 350-400 g were randomized into three groups with the doses, dosing schedules and study protocol presented in FIG. 27. The effects of SS-31 on ARI can be examined by comparing the renal functions in animals from group A with that from group B.
Renal function: Renal function was assessed by determining serum and urinary creatinine using Jiancheng Cr kit (Nanjing, P.R.C) at baseline, 24 h after dehydration and 48 h post the contrast dye administration. The creatinine clearance was calculated based on the Scr, Ucr and Urinary volume. Urinary protein concentration was determined by Bradford Protein Assay kit (Sigma, U.S.A.). Samples were analyzed by students t-test and differences were considered significant at p<0.05.

[2] = system: ARI caused by cisplatin; assay: Cisplatin-induced ARI model
Description: Sprague-Dawley rats (350-400 g) were given a single dose of cisplatin (7 mg/kg) intraperitoneally on Day 1. One group of rats (n=8) received one dose of SS-31 (3 mg/kg) subcutaneously just prior to cisplatin administration, and repeated once daily for 3 more days. A second group of rats (n=8) […] received an equal volume of saline on the day of cisplatin administration and for 3 more days after.
Experimental Protocol: Rats had free access to tap water and standard rat chow prior to cisplatin administration. Control blood samples were obtained from the tail vein before cisplatin administration. Saline or SS-31 (dissolved in saline) was administered to the rats subcutaneously prior to cisplatin injection. Cisplatin (dissolved in saline) was administered at a dose of 7 mg/kg intraperitoneally. All rats then received either saline or SS-31 (3 mg/kg) daily for 3 days. Rat were placed in metabolic cages for the last 24 hours for urine collection. At the end of this period, a blood sample was withdrawn from the tail vein. After this, the animals were anesthetized, kidneys were removed, and the animals euthanized.
Renal function: Renal function was assessed by blood urea nitrogen (BUN), serum creatinine, urine creatinine, and urine protein (Beckman ALX Chemical Analyzer). GFR was estimated from creatinine clearance which was determined from urinary creatinine, urine flow rate, and serum creatinine.
Renal Histology: Kidneys were fixed in 10% neutral-buffered formalin and embedded in paraffin wax. Three micron sections were stained with periodic acid-Schiff (PAS) and analyzed by light microscopy.

[3] = system: ARI caused by ureteral obstruction (UUO); assay: 14-day UUO model: renal histology (trichrome, interstitial volume); conditions: obstructed kidney
Description: Sprague-Dawley rats underwent unilateral ureteral ligation (UUO) with 4-0 silk suture through a midline abdominal incision under sterile conditions. Ureteral obstruction was carried out by ligating the left ureter at the end of lower ureter, just above the ureterovesical junction.
SS-31 (1 mg/kg or 3 mg/kg; n=8) was administered intraperitoneally, one day prior to UUO and continuing for 14 days. A separate group of animals was given saline, as a vehicle control (n=16).
Renal Histology: Trichrome sections of paraffin embedded specimens were examined by a board-certified pathologist (SVS, renal pathology specialist), and fibrosis scored on a scale of 0-+++.

[4] = system: contrast induced nephropathy in diabetic animal model; assay: CIN in diabetic (HFD/STZ) rats with iohexol, Experiment 1
Description: Animal model: Impaired renal function caused by diabetes is one of the major predisposing factors for contrast induced nephropathy (McCullough, P et al., J. Am. College of Cardiology, 2008, 51, 1419-1428). In this experiment, a total of 57 SD rats were fed with high fat diet for 6 weeks, followed by the injection with low dose streptozotocin (30 mg/kg). After 9 more weeks, the blood glucose, scrum creatinine and Cystatin C was measured. Based on the following selection criteria: Scr>250 μM, Cystatin C>750 ng/ml and blood glucose>=[…], 20 rats were selected to proceed with the contrast induced nephropathy study.
The animals were divided into 2 groups. Group 1 rats were fed administered iohexol and SS-31; Group 2 rats were administered iohexol and a control vehicle. On day 1, serum samples were collected from the rats in each group and total protein in urine was measured using a Bradford assay. On days 2 and 3, 3 mg/kg SS-31 (Group 1) or a vehicle (Group 2) was administered s.c. 30 min prior to the dye injection (6 mL/kg i.v. tail vein). SS-31 (Group 1) or PBS (Group 2) administration was repeated at both 2 h and 24 h post-dye administration. Serum and urine samples were collected at days 4 and 5. The rats were euthaniszed on day 5 to harvest kidneys and vital organs. Samples were analyzed by students t-test and differences were considered significant at p<0.05.
Renal function: Renal function was assessed by determining serum and urinary creatinine using Jiancheng Cr kit (Nanjing, P.R.C) at baseline, 48 h and 72 h following dye administration. The creatinine clearance was calculated based on the Scr, Ucr and Urinary volume. Urinary protein concentration was determined by Bradford Protein Assay kit (Sigma, St. Louis, Mo.). The Cystatin C was measured Westang Rat Cystatin C kit (Shanghai, P.R.C.)

[5] = 3 days after cisplatin, 3 mg/kg s.c. daily

Substance: D-Arg-2′6′Dmt-Lys-Phe-NH2 [SS-31]
- PAS staining of kidney ([1]; glycerin, dye): intact brush borders, normal glomeruli and minimum protein cast in the tubular cells
- urine protein level over time ([1]; vs vehicle group): recovered faster than the vehicle group
- rats with no change in serum creatinine (<0.4 mg/dl) ([2]; 3 days after cisplatin): 5 out of 8
- BUN [2, 5]: 29.3 ± 25 mg/dL
- Kidney weight [2, 5]: 1.6 ± 0.2 g
- body weight [2, 5]: 384 ± 28 g
- serum creatinine [2, 5]: 0.8 ± 0.73 mg/dL
- BUN ([2]; before cisplatin treatment): 15.5 ± 1.7 mg/dL
- body weight ([2]; before cisplatin treatment): 376.9 ± 5.2 g
- serum creatinine ([2]; before cisplatin treatment): 0.4 ± 0.09 mg/dL
- trichrome staining (fibrosis), cortex [3]: 0-trace
- trichrome staining (fibrosis), medulla [3]: tr− 1+
- medullary interstitial volume ([3]; 1 mg/kg i.p. daily): 54.9±2.3%
- medullary interstitial volume ([3]; higher dose): also effective
- Cystatin C ([4]; Baseline): 708.6 ± 51.3 ng/mL
- GFR ([4]; Baseline): 140.0 ± 11.1 μl/min/100 g
- Scr ([4]; Baseline): 305.7 ± 15.1 µmol/L
- U protein ([4]; Baseline): 4.83 ± 1.03 mg/4 h
- U vol ([4]; Baseline): 15.4 ± 2.6 mL
- Ucr ([4]; Baseline): 3187.0 ± 196.9 µmol/L
- Cystatin C ([4]; T1 (48 h post dye)): 1008.1 ± 46.4 ng/mL
- GFR ([4]; T1 (48 h post dye)): 149.3 ± 15.6 μl/min/100 g
- Scr ([4]; T1 (48 h post dye)): 285.4 ± 12.0 µmol/L
- U protein ([4]; T1 (48 h post dye)): 4.71 ± 0.60 mg/4 h
- U vol ([4]; T1 (48 h post dye)): 17.4 ± 1.6 mL
- Ucr ([4]; T1 (48 h post dye)): 2816 ± 163.6 µmol/L
- Cystatin C ([4]; T2 (72 h post dye)): 1303.6 ± 147.1 ng/mL
- GFR ([4]; T2 (72 h post dye)): 162.7 ± 18.7 μl/min/100 g
- Scr ([4]; T2 (72 h post dye)): 295.7 ± 20.6 µmol/L
- U protein ([4]; T2 (72 h post dye)): 3.59 ± 1.0 mg/4 h
- U vol ([4]; T2 (72 h post dye)): 20.5 ± 2.3 mL
- Ucr ([4]; T2 (72 h post dye)): 2675.4 ± 100.8 µmol/L
